In patent publication US5516784A, “Anti-HIV (AIDS) agents” (Schering Corporation, priority 1994, dated 1996):

target: T1, HIV1 protease (Human immunodeficiency virus type 1 group M subtype B, UniProt P04585); experiment: Test 1: inhibition of proteolytic activity of HIV-1 protease (HPLC); format: biochemical; parameters: proteolytic activity of HIV-1 protease; conditions: HPLC; HIV Substrate III; read-out: Enzyme Assays (HPLC) IC50
Procedure: TEST I-INHIBITION OF PROTEOLYTIC ACTIVITY OF HIV-1-PROTEASE
The ability of compounds of the invention to inhibit the proteolytic activity of HIV-1 protease was determined by using the method of Louis, et al., Biochem. Biophys. Res. Comm. 159:87-94, (1989), which is herein incorporated by reference. In using the method of Louis et al., HIV Substrate III, His-Lys-Ala-Arg-VaI-Leu-pNO2 Phe-Glu-Ala-Nle-Ser-NH2 purchased from Bachem Bioscience, Inc. Philadelphia, Pa. was used in place of the nonapeptide substrate […]amide.

Row | Compound | IC50
1 | CC(C)(C)NC(=O)c1ccccc1SC[C@H](O)[C@H](Cc1ccccc1)NC(=O)[C@@H]1CCCN1C(=O)c1ccc2ccccc2n1 [Compound 32] | > 50 nM
2 | CSCC[C@H](NC(=O)c1ccc2ccccc2n1)C(=O)N[C@@H](Cc1ccccc1)[C@@H](O)CSc1ccccc1C(=O)NC(C)(C)C [Compound 44] | > 100 nM
3 | NC(=O)C[C@H](NC(=O)c1ccc2ccccc2n1)C(=O)N[C@@H](Cc1ccccc1)[C@@H](O)CSC1CCCC1C(=O)Nc1ccccc1 (stereo partly drawn) [Compound 18] | > 500 nM
4 | CC(C)(C)NC(=O)CCSC[C@H](O)[C@H](Cc1ccccc1)NC(=O)[C@H](CC(N)=O)NC(=O)c1ccc2ccccc2n1 [Compound 27] | > 500 nM
5 | CC(C)(C)NC(=O)c1ccccc1SC[C@H](O)[C@H](Cc1ccccc1)NC(=O)[C@@H](CC(N)=O)NC(=O)c1ccc2ccccc2n1 [Compound 47] | > 100 nM
6 | NC(=O)C[C@H](NC(=O)c1ccc2ccccc2n1)C(=O)N[C@@H](Cc1ccccc1)[C@@H](O)CSc1ncccn1 [Compound 1] | > 50 nM
7 | CC(C)(C)NC(=O)c1ccccc1S(=O)(=O)C[C@H](O)[C@H](Cc1ccccc1)NC(=O)[C@H](CCS(C)(=O)=O)NC(=O)c1ccc2ccccc2n1 [Compound 45] | > 100 nM
8 | CC(C)(C)NC(=O)c1ccccc1SC[C@H](O)[C@H](Cc1ccccc1)NC(=O)[C@H](CC(N)=O)NC(=O)c1cccc[n+]1[O-] [Compound 55] | > 100 nM
9 | NC(=O)C[C@H](NC(=O)c1ccc2ccccc2n1)C(=O)N[C@@H](Cc1ccccc1)[C@@H](O)CSC1CCCC1C(=O)Nc1ccccc1 (stereo partly drawn) [Compound 16] | > 500 nM

Further lines, results first:

Row | IC50 | Compound
10 | > 100 nM | CC(C)[C@H](NC(=O)OC(C)(C)C)C(=O)N[C@@H](Cc1ccccc1)[C@@H](O)CSc1ccccc1C(=O)NC(C)(C)C [IN 4]
11 | > 100 nM | CSCC[C@H](NC(=O)OC(C)(C)C)C(=O)N[C@@H](Cc1ccccc1)[C@@H](O)CSc1ccccc1C(=O)NC(C)(C)C [IN 5]
12 | > 100 nM | CC(C)(C)NC(=O)c1ccccc1SC[C@H](O)[C@H](Cc1ccccc1)NC(=O)[C@H](Cc1c[nH]c2ccccc12)NC(=O)OC(C)(C)C [IN 6]
13 | > 500 nM | CC(C)(C)NC(=O)c1ccccc1OC[C@@H](O)[C@@H](NC(=O)[C@H](CC(N)=O)NC(=O)c1ccc2ccccc2n1)c1ccccc1 [Compound 75]

target: T1, HIV1 protease; experiment: Test 3: inhibition of proteolytic activity of HIV-1 protease by scintillation proximity assay (SPA); format: biochemical; conditions: IC50 >500 nM; read-out: Enzyme Assays (SPA) % inhibition
Excerpt: TEST 3-INHIBITION OF PROTEOLYTIC ACTIVITY OF HIV-1-PROTEASE AS DETERMINED BY SCINTILLATION […] ASSAY (SPA).
This is an alternative assay to test #1 and is used to determine the ability of compounds to inhibit the HIV1 protease activity. The SPA assay for HIV1 protease has been developed by Amersham Corporation, Arlington Heights, Ill., and is available for commercial use. In this system the substrate for HIV1 protease, AcN-(I^125)[…]SPA bead, is cleaved by the HIV1 protease at the Phe-Phe bond releasing the I^125 -labelled peptide fragment from the SPA bead. This event causes removal of detectable signal from the microsphere bead indicated by reduction in radioactivity (measured in CPM), which is proportional to the proteolytic activity. The substrate, and the HIV 1 protease were incubated in presence of synthetic compound in various dilutions at room temperature for 40 minutes, and the concentration of the compound required to inhibit the proteolytic activity by 50% (IC50) was determined.

Row | inhibition at 0.5 µM | Compound
14 | 36% | CC(C)(C)NC(=O)c1ccccc1OC[C@@H](O)[C@H](Cc1ccccc1)NC(=O)[C@H](CC(N)=O)NC(=O)c1nc2ccccc2nc1O [Compound 64]
15 | 46% | CCC(C)[C@H](NC(=O)c1ccc2ccccc2n1)C(=O)N[C@@H](Cc1ccccc1)[C@H](O)COc1ccccc1C(=O)NC(C)(C)C (stereo partly drawn) [Compound 38]
16 | 36% | CC(C)(C)NC(=O)c1ccccc1OC[C@@H](O)[C@H](Cc1ccccc1)NC(=O)[C@H](CC(N)=O)NC(=O)c1cnc2nc(N)nc(O)c2n1 [Compound 68]
17 | 35% | CC(C)(C)NC(=O)c1ccccc1OC[C@H](O)[C@H](Cc1ccccc1)NC(=O)[C@H](CC(N)=O)NC(=O)c1nc2ccccc2nc1O [Compound 63]

same assay, conditions: SPA; room temperature, 40 minutes; read-out: Enzyme Assays (SPA) IC50

Row | Compound | IC50
18 | NC(=O)C[C@H](NC(=O)c1ccc2ccccc2n1)C(=O)N[C@@H](Cc1ccccc1)[C@@H](O)CSc1nc2ccccc2[nH]1 [Compound 22] | > 200 nM
19 | NC(=O)C[C@H](NC(=O)c1ccc2ccccc2n1)C(=O)N[C@@H](Cc1ccccc1)[C@H](O)CSC1CCCC1C(=O)Nc1ccccc1 (single isomer, unassigned) [Compound 15] | > 200 nM
20 | CCC(C)C(NC(=O)c1ccc2ccccc2n1)C(=O)N[C@@H](Cc1ccccc1)[C@H](O)CSc1ccccc1C(=O)NC(C)(C)C (stereo partly drawn) [Compound 39] | > 200 nM
21 | CN(C)C(=O)C[C@H](NC(=O)c1ccc2ccccc2n1)C(=O)N[C@@H](Cc1ccccc1)[C@H](O)CSc1ccccc1C(=O)NC(C)(C)C [Compound 42] | > 200 nM
22 | NC(=O)C[C@H](NC(=O)c1ccc2ccccc2n1)C(=O)N[C@@H](Cc1ccccc1)[C@H](O)CSC1CCCC1C(=O)Nc1ccccc1 (stereo partly drawn) [Compound 21] | > 200 nM
23 | CCC(C)[C@H](NC(=O)c1ccc2ccccc2n1)C(=O)N[C@@H](Cc1ccccc1)[C@H](O)CSc1ccccc1C(=O)NC(C)(C)C (stereo partly drawn) [Compound 36] | 132 nM
24 | NC(=O)C[C@H](NC(=O)c1ccc2ccccc2n1)C(=O)N[C@@H](Cc1ccccc1)[C@@H](O)CSc1ccccc1C(=O)NC12CC3CC(CC(C3)C1)C2 [Compound 29] | > 200 nM
25 | CC(C)(C)NC(=O)c1ccc(SC[C@H](O)[C@H](Cc2ccccc2)NC(=O)[C@H](CC(N)=O)NC(=O)c2ccc3ccccc3n2)cc1 [Compound 23] | > 200 nM
26 | CC(C)(C)NC(=O)c1ccc2ccccc2c1OC[C@@H](O)[C@H](Cc1ccccc1)NC(=O)[C@H](CC(N)=O)NC(=O)c1ccc2ccccc2n1 [Compound 12] | 230 nM
27 | NC(=O)C[C@H](NC(=O)c1ccc2ccccc2n1)C(=O)N[C@@H](Cc1ccccc1)[C@H](O)CSC1CCCC1C(=O)Nc1ccccc1 (single isomer, unassigned) [Compound 17] | 200 nM
28 | CC(C)(C)NC(=O)c1cccc(SC[C@@H](O)[C@H](Cc2ccccc2)NC(=O)[C@H](CC(N)=O)NC(=O)c2ccc3ccccc3n2)c1 [Compound 26] | > 200 nM
29 | CCC(C)[C@H](NC(=O)c1ccc2ccccc2n1)C(=O)N[C@@H](Cc1ccccc1)[C@H](O)COc1ccccc1C(=O)NC(C)(C)C (stereo partly drawn) [Compound 38] | > 500 nM
30 | CC(C)(C)NC(=O)c1ccc(SC[C@@H](O)[C@H](Cc2ccccc2)NC(=O)[C@H](CC(N)=O)NC(=O)c2ccc3ccccc3n2)cc1 [Compound 24] | > 200 nM
31 | CC(C)(C)NC(=O)c1cc2ccccc2cc1OC[C@@H](O)[C@H](Cc1ccccc1)NC(=O)[C@H](CC(N)=O)NC(=O)c1ccc2ccccc2n1 [Compound 11] | 280 nM
32 | NC(=O)C[C@H](NC(=O)c1ccc2ccccc2n1)C(=O)N[C@@H](Cc1ccccc1)[C@@H](O)CSC1CCCC1C(=O)Nc1ccccc1 (stereo partly drawn) [Compound 14] | > 200 nM
33 | CC(C)(C)NC(=O)c1c(OC[C@@H](O)[C@H](Cc2ccccc2)NC(=O)[C@H](CC(N)=O)NC(=O)c2ccc3ccccc3n2)ccc2ccccc12 [Compound 10] | 110 nM
34 | CC(C)(C)NC(=O)c1ccccc1OC[C@H](O)[C@H](Cc1ccccc1)NC(=O)[C@H](CC(N)=O)NC(=O)c1cnnc2ccccc12 [Compound 65] | 500 nM
35 | CC(C)(C)NC(=O)c1ccccc1SC[C@@H](O)[C@H](Cc1ccccc1)NC(=O)[C@H](Cc1ccccc1)NC(=O)c1ccc2ccccc2n1 [Compound 34] | > 200 nM
36 | CC(C)(C)NC(=O)c1ccccc1OC[C@H](O)[C@H](Cc1ccccc1)NC(=O)[C@H](CC(N)=O)NC(=O)c1cc(O)c2ccccc2n1 [Compound 61] | 410 nM
37 | CC(C)(C)NC(=O)CCSC[C@@H](O)[C@H](Cc1ccccc1)NC(=O)[C@H](CC(N)=O)NC(=O)c1ccc2ccccc2n1 [Compound 28] | > 200 nM
38 | CC(C)(C)NC(=O)c1cccc(SC[C@H](O)[C@H](Cc2ccccc2)NC(=O)[C@H](CC(N)=O)NC(=O)c2ccc3ccccc3n2)c1 [Compound 25] | > 200 nM
39 | CC(C)(C)NC(=O)c1cccnc1OC[C@H](O)[C@H](Cc1ccccc1)NC(=O)[C@H](CC(N)=O)NC(=O)c1ccc2ccccc2n1 [Compound 6] | > 500 nM

More lines, now with the values ahead:

Row | IC50 | Compound
40 | > 500 nM | CC(C)(C)NC(=O)c1ccccc1OC[C@@H](O)[C@H](Cc1ccccc1)NC(=O)[C@H](CC(N)=O)NC(=O)c1nc2ccccc2nc1O [Compound 64]
41 | 245 nM | Cc1c(C)c2c(c(C)c1O)CCC(C)(C(=O)N[C@@H](CC(N)=O)C(=O)N[C@@H](Cc1ccccc1)[C@@H](O)COc1ccccc1C(=O)NC(C)(C)C)O2 (stereo partly drawn) [Compound 71]
42 | 48 nM | CC(C)(C)NC(=O)c1ccccc1OC[C@@H](O)[C@H](Cc1ccccc1)NC(=O)[C@H](CC(N)=O)NC(=O)c1cnc2ccccc2n1 [Compound 60]
43 | > 500 nM | CC(C)(C)NC(=O)c1ccccc1OC[C@@H](O)[C@H](Cc1ccccc1)NC(=O)[C@H](CC(N)=O)NC(=O)c1cnc2nc(N)nc(O)c2n1 [Compound 68]
44 | > 500 nM | CC(C)(C)NC(=O)c1ccccc1OC[C@H](O)[C@H](Cc1ccccc1)NC(=O)[C@H](CC(N)=O)NC(=O)c1nc2ccccc2nc1O [Compound 63]
45 | > 500 nM | CCC(C)[C@H](NC(=O)OC(C)(C)C)C(=O)N[C@@H](Cc1ccccc1)[C@H](O)CSc1ccccc1C(=O)NC(C)(C)C (stereo partly drawn) [IN 7]
46 | > 500 nM | CC(C)(C)NC(=O)c1ccccc1OC[C@@H](O)[C@H](CCc1ccccc1)NC(=O)[C@H](CC(N)=O)NC(=O)c1ccc2ccccc2n1 [Compound 76]
47 | 124 nM | CC(C)(C)NC(=O)c1ccccc1OC[C@@H](O)[C@H](Cc1ccccc1)NC(=O)[C@H](CC(N)=O)NC(=O)c1cnnc2ccccc12 [Compound 66]
48 | 125 nM | CC(C)(C)NC(=O)c1ccccc1OC[C@@H](O)[C@H](Cc1ccccc1)NC(=O)[C@H](CC(N)=O)NC(=O)OCc1ccccc1 [IN 8]

same assay, conditions: read-out: Enzyme Assays (SPA) IC50

Row | IC50 | Compound
49 | 55 nM | CC(C)(C)NC(=O)c1ccccc1OC[C@@H](O)[C@H](Cc1ccccc1)NC(=O)[C@H](CC(N)=O)NC(=O)c1ccc2c(c1)C(=O)c1ccccc1C2=O [Compound 70]
50 | 84 nM | CC(C)(C)NC(=O)c1ccccc1OC[C@H](O)[C@H](Cc1ccccc1)NC(=O)[C@H](CC(N)=O)NC(=O)c1ccc2c(c1)C(=O)c1ccccc1C2=O [Compound 69]

Row | Compound | IC50
51 | CC(C)(C)NC(=O)c1ccccc1OC[C@H](O)[C@H](Cc1ccccc1)NC(=O)[C@H](CC(N)=O)NS(=O)(=O)c1ccc2ccccc2c1 [Compound 73] | 425 nM
